In patent US11357774B2, “Use of a quinoline sulfonyl compound for treatment of inflammation, inflammatory disorders, autoimmune disorders and malaria” (priority 2019, dated 2022):

Assays:
THP-1 monocytic cells = assay: Sulforhodamine B (SRB) assay, IC50 on THP-1 cells; format: cell-based, human
Method: The sulforhodamine B (SRB) assay^21 was used to determine the drug concentration that half of the cell growth/viability is inhibited (IC50). Cells were cultured in 96-well plates, with 5,000 cells in 100 μL of culture medium per well. The rest of the protocol was the same as described previously^22,23.
Data shown in Table 1 are IC50 values of VR23 and other compounds, which were determined using sulforhodamine B (SRB) assays on immunologically relevant cells (THP-1, SW-982 and PBMC). […] Two well-known proteasome inhibitors, BTZ and CFZ, were included for comparison since VR23 is also a proteasome inhibitor, albeit targeting different subunits^2. The widely used anti-inflammatory DEX was included, also for comparison.
THP-1, SW982 and PBMC cells (5,000 cells/well) were treated with each compound for 48 hours. The IC50, the drug concentration reducing cell growth/viability by 50%, was determined by a dose-response four-parameter curve (generated with GraphPad Prism V. 4.02) formed by 10 two-fold dilutions (n=3).

SW-982 cells = assay: CCK-8 cell viability, SW-982 cells; format: cell-based; conditions: SW-982, 6 hours with IL-1β 1 ng/mL; VR23 5 μM, HCQ 30 μM
Method: (§1) Dunnett's test was performed to assess if there are significant differences in cell viability compared to the non-treatment control group. The values presented are mean±SEM (n=3).
(§2) The CCK-8 assay was used to count viable cells under the various treatment conditions. Briefly, cells were cultured in 11 columns of a 96-well clustered plate, with 5,000 cells in 100 μL of culture medium per well, excluding one column for a media-only control. The plate was incubated overnight at 37° C. in the humidified conditions, followed by treatment with test compounds diluted in the culture medium (10 μL). Each column was treated with a different condition so that each treatment could have 8 repeats. […] The absorbance was measured using an automatic plate reader (Synergy H4 Hybrid Multi-Mode Microplate Reader, BioTek, Montreal, Canada) at 450 nm wavelength. The cell viability of each treatment sample was determined by using the following equation (%)=(Abstrtmt-Absmedia)/(AbsuT-Absmedia)*100, where Abstrtmt is the absorbance value of cells with the various treatment conditions; Absmedia is the absorbance of the well containing media only; AbsuT is the absorbance of the wells with untreated cells. […]

[1] = test system: human fibroblast-like synoviocytes from healthy donors (HFLS-N); assay: Viability test, HFLS-N cells; format: cell-based; conditions: 6 hours, IL-1β 10 ng/mL, VR23 2.5-10 μM
Method: The values presented are the mean±SEM (n=3).
The CCK-8 assay was used to count viable cells under the various treatment conditions. Briefly, cells were cultured in 11 columns of a 96-well clustered plate, with 5,000 cells in 100 μL of culture medium per well, excluding one column for a media-only control. The plate was incubated overnight at 37° C. in the humidified conditions, followed by treatment with test compounds diluted in the culture medium (10 μL). Each column was treated with a different condition so that each treatment could have 8 repeats. […] The absorbance was measured using an automatic plate reader (Synergy H4 Hybrid Multi-Mode Microplate Reader, BioTek, Montreal, Canada) at 450 nm wavelength. The cell viability of each treatment sample was determined by using the following equation (%)=(Abstrtmt-Absmedia)/(AbsuT-Absmedia)*100, where Abstrtmt is the absorbance value of cells with the various treatment conditions; Absmedia is the absorbance of the well containing media only; AbsuT is the absorbance of the wells with untreated cells.
This finding was extended to human cells relevant to autoimmune diseases. […] Cytokine levels in cell culture supernatants were determined by a single-analyte ELISA. […] The cytokine secretion was measured in cell culture supernatants by a single-analyte ELISA.

THP-1 cells = assay: CCK-8 cell viability, THP-1 cells; format: cell-based; conditions: THP-1, 6 hours with LPS 5 μg/mL or TNF-α 10 ng/mL; VR23 3 μM, BTZ 6 nM, CFZ 1 nM, DEX 2 μM
Method: as §1, §2

[2] = target: β2 subunit of the proteasome 20S catalytic unit (Homo sapiens, UniProt Q99436); conditions: cited from earlier work
HFLS-RA cell migration = assay: Cell migration assay (matrigel invasion chamber), HFLS-RA; format: cell-based, human; conditions: 24 hours, 5 μM or 10 μM
Method: The values presented are the mean±SEM (n=2).
Cell migration assays were performed with Corning invasion chambers with Matrigel matrix (Fisher Scientific). The lower chamber contained compounds (e.g., VR23 or HCQ) and FBS as a chemo-attractant. The upper chamber was loaded with cells in FBS-free medium. The analysis of the trans-well inserts were carried out as described previously^24. After 24 hours of incubation, the trans-well inserts were removed, and then the remaining media and cells on the upper chamber were also removed from the top of the membrane with a cotton swab. The trans-well inserts were placed into wells containing 1 mL of 70% ethanol for 10 minutes to fix the cells. The residual ethanol was carefully removed with a cotton swab. Cells on the trans-well insert membrane were then air-dried at room temperature for 15 minutes. The trans-well insert containing cells were placed in 1 mL of 0.2% crystal violet for 10 minutes to stain. The excessive crystal violet was carefully removed from the membrane with a cotton swab. Subsequently, cells on the trans-well membrane were air-dried at room temperature prior to analysis under an inverted microscope. Images (10×) were captured at 5 different fields. The average number of cells that migrated through the membrane towards the chemo-attractant were determined. […]

## O=[N+]([O-])c1ccc(S(=O)(=O)N2CCN(c3ccnc4cc(Cl)ccc34)CC2)c([N+](=O)[O-])c1 [VR23, 7-chloro-4-(4-(2,4-dinitrophenylsulfonyl)piperazin-1-yl)quinoline]
THP-1 monocytic cells; 48 hours
  IC50: 2580 ± 500 nM
THP-1 monocytic cells; Homo sapiens, THP-1, 48 h
  IC50: 3000 nM
SW-982 cells
  cell viability (CCK-8): did not significantly differ from the untreated cells
[1]
  cell viability: none of the conditions examined significantly affected the viability
THP-1 cells
  cell viability (CCK-8): did not significantly differ from the untreated cells
[2]
  proteasome inhibition: strong proteasome inhibitor
HFLS-RA cell migration
  cell migration promoted by 10% FBS: completely prevents cell migration
